This note sets out measurements from patent US10086039B2, “Lamin A, an activator of longevity/anti-aging SIRT1 protein” (THE UNIVERSITY OF HONG KONG, priority 2012, dated 2018).

One test deals with Zmpste24−/− mice. The test can be described thus: Survival and body weight of Zmpste24−/− mice treated via drinking water. The test is classed as in vivo, mouse. The note with it: resveratrol 20 μg/ml in drinking water. The procedure:
Zmpste24^−/− mice have been described previously (Pendas et al., 2002). Mouse experimentation was performed in accordance with the guidelines of the Committee on the Use of Live Animals in Teaching and Research (CULATR) at the University of Hong Kong. New-born Zmpste24^−/− mice and wild-type controls were fed with resveratrol (20 μg/ml) or N-acetyl Cysteine (1 mg/ml) in drinking water. The survival of resveratrol-treated, NAC-treated, or vehicle-treated Zmpste24^−/− mice was recorded and their body weight was monitored weekly. The trabecular bone organization and bone mineral density were determined by micro-CT. The survival rate was analyzed by Kaplan-Meier method and statistical comparison was performed by Log-rank (Mantel-Cox) Test.
Briefly, resveratrol was supplemented at a concentration of 20 μg/ml in drinking water. Four months after treatment, BMSCs were collected for examination and comparison between resveratrol-treated and vehicle-treated Zmpste24^−/− mice.

Test [1] addresses T1, SIRT1 binding to prelamin A (Mus musculus, UniProt Q923E4).
T1 construct: endogenous in cells; host or cells: mouse bone marrow stromal cells (Zmpste24-/-)
T1 sequence (Q923E4 2-737 limits assumed): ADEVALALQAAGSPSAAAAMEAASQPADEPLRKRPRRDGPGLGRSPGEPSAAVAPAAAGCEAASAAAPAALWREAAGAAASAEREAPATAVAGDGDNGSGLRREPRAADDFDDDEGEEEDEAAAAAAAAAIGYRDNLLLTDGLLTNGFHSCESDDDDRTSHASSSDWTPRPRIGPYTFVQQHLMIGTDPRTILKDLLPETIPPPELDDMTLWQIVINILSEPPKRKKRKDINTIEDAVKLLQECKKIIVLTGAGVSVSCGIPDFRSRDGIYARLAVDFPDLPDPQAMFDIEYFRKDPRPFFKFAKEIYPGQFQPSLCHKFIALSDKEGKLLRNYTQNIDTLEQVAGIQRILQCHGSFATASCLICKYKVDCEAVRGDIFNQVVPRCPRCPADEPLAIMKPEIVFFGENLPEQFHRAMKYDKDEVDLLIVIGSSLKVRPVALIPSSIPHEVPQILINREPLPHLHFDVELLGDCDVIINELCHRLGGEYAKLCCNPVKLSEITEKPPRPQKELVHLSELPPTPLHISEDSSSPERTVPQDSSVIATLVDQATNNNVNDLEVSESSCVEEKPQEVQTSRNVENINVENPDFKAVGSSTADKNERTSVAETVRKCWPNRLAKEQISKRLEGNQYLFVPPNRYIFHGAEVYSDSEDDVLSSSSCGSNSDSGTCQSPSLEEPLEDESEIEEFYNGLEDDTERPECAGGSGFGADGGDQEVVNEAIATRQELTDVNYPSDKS
T1 sequence (P48678 1-662 partner limits assumed): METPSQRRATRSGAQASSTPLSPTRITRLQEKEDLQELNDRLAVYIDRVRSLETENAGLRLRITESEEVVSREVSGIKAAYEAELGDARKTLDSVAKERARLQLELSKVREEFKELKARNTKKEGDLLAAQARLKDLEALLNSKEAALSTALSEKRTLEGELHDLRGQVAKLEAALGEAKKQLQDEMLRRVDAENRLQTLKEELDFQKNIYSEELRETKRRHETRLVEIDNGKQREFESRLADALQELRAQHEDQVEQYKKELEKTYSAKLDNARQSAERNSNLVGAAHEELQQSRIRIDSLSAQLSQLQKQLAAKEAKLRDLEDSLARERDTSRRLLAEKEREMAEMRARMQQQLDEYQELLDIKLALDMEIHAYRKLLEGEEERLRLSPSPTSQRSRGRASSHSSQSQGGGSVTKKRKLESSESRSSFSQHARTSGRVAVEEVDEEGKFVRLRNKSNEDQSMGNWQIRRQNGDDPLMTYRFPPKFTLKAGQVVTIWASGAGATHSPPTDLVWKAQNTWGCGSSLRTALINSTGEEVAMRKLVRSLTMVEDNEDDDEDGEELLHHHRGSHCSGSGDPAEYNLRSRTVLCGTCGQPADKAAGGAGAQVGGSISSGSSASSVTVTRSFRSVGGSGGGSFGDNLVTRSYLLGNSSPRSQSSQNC
The test can be described thus: Prelamin A pull-down by anti-SIRT1 immunoprecipitates in BMSCs. The test is classed as cell-based. The note with it: resveratrol 2 μM. The procedure: (FIG. 4A) Resveratrol (10 μM) increased colony-forming capacity of Zmpste24^−/− BMSCs. Colony-forming assay was performed on freshly isolated bone marrow cells in 10 cm dishes in the presence and absence of resveratrol. (FIG. 4B) Colony number counting. […] Data represent mean±SEM, n=4. *P<0.05, RSV Vs Vehicle. (FIG. 4C) Left, level of prelamin A pull down by anti SIRT1 immunoprecipitates in BMSCs treated or untreated with resveratrol (2 μM) was determined by Immunoblotting; right, level of acetylated Foxo3a in resveratrol was assessed by Immunoblotting. (FIG. 4D) Levels of catalase and Gadd45α in SIRT1 or scramble siRNA treated Zmpste24^−/− BMSCs in the presence or absence of resveratrol (10 μM) determined by Western blotting. (FIG. 4E) Colony-forming capacity of Zmpste24^−/− BMSCs by SIRT1 or scramble knocking down in the presence or absence of resveratrol. […] Colony forming assay was done on freshly isolated cells in 6-well plates. (FIG. 4F) Quantification of (FIG. 4E). […] (FIG. 4gG Levels of H3K9ac and IR-induced-H2AX with or without ectopic SIRT1 in wild-type and Zmpste24 null BMSCs were assessed by Western blotting. (FIG. 4H) Ectopic SIRT1 increased the colony-forming capacity of Zmpste24^−/− and wild-type BMSCs. Colony-forming assay was performed on freshly isolated cells in 6 cm dishes. (FIG. 4I) Quantification of (FIG. 4H). Data represent mean±SEM, n=5. *P<0.05, SIRT1 Vs Mock. […]

`Oc1ccc(C=Cc2cc(O)cc(O)c2)cc1` [resveratrol] yielded an animals still alive in the test with Zmpste24−/− mice (by 26 weeks after birth) of around 60%. For the same compound, the body weight loss entry with Zmpste24−/− mice (compared to vehicle-treated controls) is listed as “significantly slowed down”. Besides, the median survival with Zmpste24−/− mice (vehicle 20 weeks) is given as 27 weeks. The “maximum lifespan (mean lifespan of the longest-lived 10% of the animals)” value with Zmpste24−/− mice (vehicle 27.5 weeks) is given as 33.5 weeks. In test [1], the “binding of SIRT1 to prelamin A” value is recorded as “increased the binding of SIRT1 to prelamin A”.
